# From patent publication US8338599B2, “Compounds having a potentiating effect on the activity of ethionamide and uses thereof” (priority 2006, dated 2012)
# pIC50: −log10 of the molar value. Where “and” joins values, the source holds several entries; their conditions need not be identical. Identical values can stand only once. Like-named read-outs stand apart in the source and are kept apart here.
# Experiments:
# EthR protein [1] = target: T1, EthR protein (Mycobacterium tuberculosis, UniProt P9WMC1); experiment: Inhibition of interaction of EthR with its target DNA sequence (BIAcore); type: binding, M. tuberculosis H37Rv; details: compound 3 μM, EthR 540 nM, 37° C.
# T1 sequence (P9WMC1 whole entry, looked up): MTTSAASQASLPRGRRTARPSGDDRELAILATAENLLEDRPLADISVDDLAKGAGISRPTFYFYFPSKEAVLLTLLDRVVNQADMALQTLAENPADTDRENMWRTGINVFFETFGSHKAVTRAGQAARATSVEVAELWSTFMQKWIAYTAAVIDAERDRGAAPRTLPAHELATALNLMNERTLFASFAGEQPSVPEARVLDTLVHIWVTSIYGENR
# Description: a) Measurement of the Activity of the Compounds on the Inhibition of Interaction of EthR with its Target DNA Sequence
# The in vitro measurements of inhibition of binding of the EthR protein to its target DNA sequence were performed on a machine of BIAcore®2000 type (AB, Uppsala, Sweden).
# The chips used are CM5 chips sold by the company GE Healthcare. Both the channels of a chip were activated with a solution containing 200 mM of EDC(N-ethyl-N′-(3-[…])carbodiimide) and 50 mM of NHS (N-hydroxysuccinimide). Next, streptavidin (500 ng/μl in a solution containing 10 mM of sodium acetate (pH 3.5) was injected over 12 minutes at a flow rate of 10 μl/minute. The 106-base-pair biotinylated DNA fragment corresponding to the ethA-R intergene region was deposited on one of the two channels of the chip at a rate of 200 ng/ml in order to obtain stable binding of streptavidin corresponding to 50 RU (resonance units). This DNA fragment was obtained by PCR using the chromosomal DNA of M. tuberculosis H37Rv as matrix and O-270: 5′-[…]-3′ (SEQ ID: No. 1) and O-271: 5′-biotin-[…]-3′ (SEQ ID: No. 2). The second channel was functionalized with a 113-base-pair biotinylated DNA fragment (fragment +14 to +127 of the bla gene of E. coli PCR-amplified using the following oligonucleotides: O-343: 5′-[…]-3′ (SEQ ID: No. 3) and O-344: 5′-biotin-[…]-3′ (SEQ ID: No. 4).
# Measurement of the binding of the EthR protein to the immobilized DNA was performed at 37° C. in a reference buffer containing 10 mM of Tris-HCl (pH=7.5), 200 mM of NaCl, 0.1 mM of EDTA, 1 mM of DTT and 1% of DMSO at a flow rate of 20 μl/minute. The specific interaction (SI) of EthR with the 106-base-pair double-stranded DNA sequence, expressed in resonance units, corresponds to the difference in signal observed between the two channels.
# For each inhibition measurement, the compounds of the invention are dissolved in the reference buffer at a concentration of 3 μM. The compounds of the invention are then incubated in the presence of the protein (540 nM) at 37° C. for 5 minutes, and each solution is then injected onto the two channels of the chip for 3 minutes at a flow rate of 20 μl/minute. The inhibition values are calculated at the end of the injection according to the following equation: […]
# in which SIEthR corresponds to the value measured without ligand and SIEthR+ligand corresponds to the value measured in the presence of to ligand.
# [2] = Measurement of the solubility (PBS pH 7.4 vs methanol, LC/MS); type: physicochemical; details: pH 7.4, aqueous buffer, kinetic from dmso stock
# Description: e) Measurement of the Solubility of the Compounds of the Invention
# 40 μl of a solution containing a compound of the invention at a concentration of 10 mM in DMSO were diluted in 1.960 ml of methanol, and another 40 μl were diluted in 1.960 ml of a PBS solution containing 675 mM of NaCl, 13.5 mM of KCl, 50 mM of Na2HPO4.2H2O and 10 mM of KH2PO4 at a pH of 7.4. The two solutions were stirred for 24 hours at room temperature, and then centrifuged for 5 minutes and filtered through 0.45 μm filters. 20 μl of each solution were then diluted in 118 μl of methanol and analyzed by liquid chromatography coupled to mass spectrometry (LC/MS). The solubility was determined by the ratio of the areas under the curve of the mass signal for the compound of the invention, according to the following equation: […]
# EthR protein [3] = target: T1, EthR protein; experiment: In vitro measurement of the IC50 (EthR/DNA binding, BIAcore); parameters: species or system M. tuberculosis H37Rv
# Description: b) In Vitro Measurement of the IC50 of the Compounds of the Invention.
# The in vitro measurement of this datum was performed according to the same principle as for the measurement of inhibition of the EthR/DNA binding using the BIAcore technique.
# The specific interaction between EthR and the specific 106-bp DNA fragment was measured on a range of six concentrations of the compounds of the invention, this range extending from 0.11 μM to 27 μM. The IC50 values are then extrapolated from the sigmoid curves obtained.
# M. bovis BCG = type: cell-based, M. bovis BCG 1173P2; details: from MIC of ETH alone (6 μM) and MIC of ETH with 25 μM compound
# M. tuberculosis H37Rv = experiment: Ethionamide-potentiating effect, fluorimetric detection on Bactec MGIT 960; type: cell-based
# [4] = strain 1%, no ETH, ligand 25 μM
# [5] = strain 100%, ETH 0.025 μg/mL + ligand 25 μM
# [6] = strain 100%, ETH 0.05 μg/mL + ligand 25 μM
# [7] = strain 100%, ETH 0.1 μg/mL + ligand 25 μM
# [8] = strain 100%, ETH 0.25 μg/mL + ligand 25 μM
# [9] = strain 100%, no ETH, ligand 25 μM
# [10] = six concentrations from 0.11 μM to 27 μM, read-out: IC50
smiles,measurement,setting,value
"[N-]=[N+]=NCC(=O)N1CCC(c2nc(-c3ccc(F)cc3)no2)CC1 [Compound 5, 2-azido-1-{4-[3-(4-fluorophenyl)[1,2,4]oxadiazol-5-yl]piperid-1-yl}ethanone]",inhibition at 3 µM,EthR protein [1],15%
same,solubility at 24 h,[2],9 µg/mL
"[N-]=[N+]=NCC(=O)N1CCC(c2nc(-c3ccc4c(c3)OCO4)no2)CC1 [Compound 12, 2-azido-1-[4-(3-benzo[1,3]dioxol-5-yl[1,2,4]oxadiazol-5-yl)piperid-1-yl]ethanone]",inhibition at 3 µM,EthR protein [1],19%
same,solubility at 24 h,[2],71 µg/mL
"CC(=O)N1CCC(c2nc(-c3cccs3)no2)CC1 [Compound 17, 1-[4-(3-thiophen-2-yl[1,2,4]oxadiazol-5-yl)piperid-1-yl]ethanone]",solubility at 24 h,[2],55.5 µg/mL
"C=CCCC(=O)N1CCC(c2nc(-c3cccs3)no2)CC1 [Compound 20, 1-[4-(3-thiophen-2-yl[1,2,4]oxadiazol-5-yl)piperid-1-yl]pent-4-en-1-one]",inhibition at 3 µM,EthR protein [1],53%
same,pIC50,EthR protein [3],6.00
same,Potentiation %,M. bovis BCG,2500%
same,potentiation of the ethionamide activity (factor),M. tuberculosis H37Rv; compound 25 μM,about 20 fold
same,solubility at 24 h,[2],63.5 µg/mL
"N#CCC(=O)N1CCC(c2nc(-c3cccs3)no2)CC1 [Compound 22, 3-oxo-3-[4-(3-thiophen-2-yl[1,2,4]oxadiazol-5-yl)piperid-1-yl]propionitrile]",inhibition at 3 µM,EthR protein [1],28%
same,pIC50,EthR protein [3],5.48
same,Potentiation %,M. bovis BCG,2500%
same,potentiation of the ethionamide activity (factor),M. tuberculosis H37Rv; compound 25 μM,~10 fold
same,potentiation of the ethionamide activity (factor),"M. tuberculosis H37Rv; compound 25 μM, listed as compound 22",about 10 fold
same,solubility at 24 h,[2],60.4 µg/mL
"COCC(=O)N1CCC(c2nc(-c3cccs3)no2)CC1 [Compound 28, 2-methoxy-1-[4-(3-thiophen-2-yl[1,2,4]oxadiazol-5-yl)piperid-1-yl]ethanone]",solubility at 24 h,[2],61.5 µg/mL
"O=C(O)CCC(=O)N1CCC(c2nc(-c3cccs3)no2)CC1 [Compound 31, 4-oxo-4-[4-(3-thiophen-2-yl[1,2,4]oxadiazol-5-yl)piperid-1-yl]butyric acid]",solubility at 24 h,[2],67.1 µg/mL
"O=C(CC1CC1)N1CCC(c2nc(-c3cccs3)no2)CC1 [Compound 33, 2-cyclopropyl-1-[4-(3-thiophen-2-yl[1,2,4]oxadiazol-5-yl)piperid-1-yl]ethanone]",inhibition at 3 µM,EthR protein [1],71%
same,pIC50,EthR protein [3],5.95
same,Potentiation %,M. bovis BCG,2500%
same,bacterial growth-inhibiting properties of the compound alone,"M. tuberculosis H37Rv; 25 μM, no ETH (lines A5 and D3)",absence of bacterial growth-inhibiting properties
same,MIC,"M. tuberculosis H37Rv; Mycobacterium tuberculosis, H37RV, compound 25 μM, read-out: MIC for ETH in the presence of compound",0.05 µg/mL and 0.3 µM
same,State,M. tuberculosis H37Rv; [4],R
same,fluorescence reading D + 0,M. tuberculosis H37Rv; [4],0
same,fluorescence reading D + 1,M. tuberculosis H37Rv; [4],0
same,"fluorescence reading D + 5 (first column, c6)",M. tuberculosis H37Rv; [4],0
same,"fluorescence reading D + 5 (second column, c7)",M. tuberculosis H37Rv; [4],0
same,fluorescence reading D + 6,M. tuberculosis H37Rv; [4],1
same,"fluorescence reading D + 7 (first column, c9)",M. tuberculosis H37Rv; [4],180
same,"fluorescence reading D + 7 (second column, c10)",M. tuberculosis H37Rv; [4],319
same,fluorescence reading J + 8,M. tuberculosis H37Rv; [4],400
same,State,M. tuberculosis H37Rv; [5],R
same,fluorescence reading D + 0,M. tuberculosis H37Rv; [5],0
same,fluorescence reading D + 1,M. tuberculosis H37Rv; [5],0
same,"fluorescence reading D + 5 (first column, c6)",M. tuberculosis H37Rv; [5],200
same,"fluorescence reading D + 5 (second column, c7)",M. tuberculosis H37Rv; [5],353
same,fluorescence reading D + 6,M. tuberculosis H37Rv; [5],400
same,"fluorescence reading D + 7 (first column, c9)",M. tuberculosis H37Rv; [5],400
same,"fluorescence reading D + 7 (second column, c10)",M. tuberculosis H37Rv; [5],400
same,fluorescence reading J + 8,M. tuberculosis H37Rv; [5],400
same,State,M. tuberculosis H37Rv; [6],S
same,fluorescence reading D + 0,M. tuberculosis H37Rv; [6],0
same,fluorescence reading D + 1,M. tuberculosis H37Rv; [6],0
same,"fluorescence reading D + 5 (first column, c6)",M. tuberculosis H37Rv; [6],0
same,"fluorescence reading D + 5 (second column, c7)",M. tuberculosis H37Rv; [6],0
same,fluorescence reading D + 6,M. tuberculosis H37Rv; [6],0
same,"fluorescence reading D + 7 (first column, c9)",M. tuberculosis H37Rv; [6],0
same,"fluorescence reading D + 7 (second column, c10)",M. tuberculosis H37Rv; [6],0
same,fluorescence reading J + 8,M. tuberculosis H37Rv; [6],0
same,State,M. tuberculosis H37Rv; [7],S
same,fluorescence reading D + 0,M. tuberculosis H37Rv; [7],0
same,fluorescence reading D + 1,M. tuberculosis H37Rv; [7],0
same,"fluorescence reading D + 5 (first column, c6)",M. tuberculosis H37Rv; [7],0
same,"fluorescence reading D + 5 (second column, c7)",M. tuberculosis H37Rv; [7],0
same,fluorescence reading D + 6,M. tuberculosis H37Rv; [7],0
same,"fluorescence reading D + 7 (first column, c9)",M. tuberculosis H37Rv; [7],0
same,"fluorescence reading D + 7 (second column, c10)",M. tuberculosis H37Rv; [7],0
same,fluorescence reading J + 8,M. tuberculosis H37Rv; [7],0
same,State,M. tuberculosis H37Rv; [8],S
same,fluorescence reading D + 0,M. tuberculosis H37Rv; [8],0
same,fluorescence reading D + 1,M. tuberculosis H37Rv; [8],0
same,"fluorescence reading D + 5 (first column, c6)",M. tuberculosis H37Rv; [8],0
same,"fluorescence reading D + 5 (second column, c7)",M. tuberculosis H37Rv; [8],0
same,fluorescence reading D + 6,M. tuberculosis H37Rv; [8],0
same,"fluorescence reading D + 7 (first column, c9)",M. tuberculosis H37Rv; [8],0
same,"fluorescence reading D + 7 (second column, c10)",M. tuberculosis H37Rv; [8],0
same,fluorescence reading J + 8,M. tuberculosis H37Rv; [8],0
same,State,M. tuberculosis H37Rv; [9],R
same,fluorescence reading D + 0,M. tuberculosis H37Rv; [9],0
same,fluorescence reading D + 1,M. tuberculosis H37Rv; [9],0
same,"fluorescence reading D + 5 (first column, c6)",M. tuberculosis H37Rv; [9],400
same,"fluorescence reading D + 5 (second column, c7)",M. tuberculosis H37Rv; [9],400
same,fluorescence reading D + 6,M. tuberculosis H37Rv; [9],400
same,"fluorescence reading D + 7 (first column, c9)",M. tuberculosis H37Rv; [9],400
same,"fluorescence reading D + 7 (second column, c10)",M. tuberculosis H37Rv; [9],400
same,fluorescence reading J + 8,M. tuberculosis H37Rv; [9],400
same,solubility at 24 h,[2],63.5 µg/mL
"O=C(CC1CCCC1)N1CCC(c2nc(-c3cccs3)no2)CC1 [Compound 35, 2-cyclopentyl-1-[4-(3-thiophen-2-yl[1,2,4]oxadiazol-5-yl)piperid-1-yl]ethanone]",inhibition at 3 µM,EthR protein [1],52%
same,pIC50,EthR protein [3]; [10],5.83
same,Potentiation %,M. bovis BCG,2500%
"O=C(CC1C=CCC1)N1CCC(c2nc(-c3cccs3)no2)CC1 (stereo not shown) [Compound 36, 2-cyclopent-2-enyl-1-[4-(3-thiophen-2-yl[1,2,4]oxadiazol-5-yl)piperid-1-yl]-ethanone]",inhibition at 3 µM,EthR protein [1],78%
same,pIC50,EthR protein [3]; [10],6.00
same,Potentiation %,M. bovis BCG,500%
"O=C(COc1ccccc1)N1CCC(c2nc(-c3cccs3)no2)CC1 [Compound 45, 2-phenoxy-1-[4-(3-thiophen-2-yl[1,2,4]oxadiazol-5-yl)piperid-1-yl]ethanone]",inhibition at 3 µM,EthR protein [1],75%
same,pIC50,EthR protein [3]; [10],5.82
same,Potentiation %,M. bovis BCG,2500%
"O=C(Nc1ccccc1)N1CCC(c2nc(-c3cccs3)no2)CC1 [Compound 48, 4-(3-thiophen-2-yl[1,2,4]oxadiazol-5-yl)piperidine-1-carboxylic acid phenylamide]",inhibition at 3 µM,EthR protein [1],56%
same,pIC50,EthR protein [3],5.94
same,solubility at 24 h,[2],0.86 µg/mL
"O=C(Nc1cccs1)N1CCC(c2nc(-c3cccs3)no2)CC1 [Compound 50, 4-(3-thiophen-2-yl[1,2,4]oxadiazol-5-yl)piperidine-1-carboxylic acid thiophen-2-ylamide]",inhibition at 3 µM,EthR protein [1],96%
same,pIC50,EthR protein [3],6.36
same,solubility at 24 h,[2],2.9 µg/mL
"O=C(NC1CC1)N1CCC(c2nc(-c3cccs3)no2)CC1 [Compound 51, 4-(3-thiophen-2-yl[1,2,4]oxadiazol-5-yl)piperidine-1-carboxylic acid cyclopropylamide]",inhibition at 3 µM,EthR protein [1],13%
same,solubility at 24 h,[2],272 µg/mL
"O=C(c1ccccc1)N1CCC(c2nc(-c3cccs3)no2)CC1 [Compound 54, phenyl[4-(3-thiophen-2-yl[1,2,4]oxadiazol-5-yl)piperid-1-yl]methanone]",inhibition at 3 µM,EthR protein [1],5%
same,solubility at 24 h,[2],38.7 µg/mL
